Experimental data: patent publication EP2292587A1, “PHARMACEUTICAL COMPOSITION FOR INHIBITING THE TRANSCRIPTION FACTOR INDUCIBLE BY HYPOXIA, MODULATORS OF PATHOLOGICAL PROCESSES OF ANGIOGENESIS, ONCOGENESIS, INFLAMMATION, APOPTOSIS, AND CELLULAR THERAPY” (Fundacion De La Comunidad Valenciana Centro De …, priority 2008, dated 2009)

Legend:
C17.2 = test: toxicity in C17.2 neural stem cells; format: cell-based; settings: Mus musculus
Description: C17.2 were cultured in an undifferentiated state using a high-glucose Dulbecco's modified medium (DMEM) supplemented with 10% fetal calf serum, 5% horse serum, 1% glutamine (2 mM), 1% penicillin/streptomycin/fungizone. The cells were seeded at 1500 cells/cm^2, both for normoxic conditions and for hypoxic conditions. The culture of cells in normoxia was carried out in an incubator with 20% O2, 5% CO2, 37°C and the standard percentage of humidity (94%). The conditions of low concentration of O2 were created by using a hypoxia chamber (Invivo2 400, Ruskinn Life Sciences), with the mixture of gases 1% O2, 5% CO2, and 94% N2 at 37°C. The cells were maintained under the normoxic and hypoxic conditions at different times 3, 6, 9, 24, 48 hours. They were subsequently collected and the proteins and the mRNA were extracted using a commercial kit, NucleoSpin RNA/protein (Macherey Nagel) according to the manufacturers' instructions. The concentrations of 19G11 used during the studies conducted are 125, 250 and 500 nM. The concentrations were used according to the results obtained after evaluating the toxicity of C17.2 due to the presence of the compound, since IC50 >1 µM.

Sox2 and Oct3/4 = test: qPCR of Sox2 and Oct3/4 in H9 hESCs; format: cell-based, human; settings: 500 nM, 48 hours, hypoxia (1% O2)
Description: Culture of the H9 human embryonic cell (hESC) line: To maintain and propagate the hESC line (up to no more than 70 passes), the hESCs are cultured on a monolayer of mouse fibroblasts inactivated with mitomycin C (Sigma Aldrich, Sweden) (Thomson et al., [1998]). To study the transcriptional changes of SOx2 and Oct3/4, the undifferentiated colonies of hESCs were transferred, by mechanical dissociation, to a culture plate coated with a thin layer of Matrigel® and are cultured in the presence of conditioned medium. The conditioned medium is obtained from the culture of confluent and inactivated mouse fibroblasts, seeded on plates coated with gelatin (0.1 %; Sigma).
Using the experimental conditions described in Example 35, the procedure was the same including in this case the TaqMan probes for human Sox2, Oct3/4 and GAPDH (Sox2: Hs01053049_s1; Oct3/4:Hs01895061_u1; GAPDH: Hs99999905_m1). […] The expression levels of both messenger RNAs are induced under hypoxic conditions versus normoxic conditions (high oxygen culture conditions ~ 20% O2),

epSPCs = test: proliferation (ATP, CellTiter-Glo) and neurosphere formation of epSPCs; format: cell-based, rat; settings: for rates of proliferation (ATP): 500 nM
Description: The accumulation of ATP, a metabolite directly related to the increase of metabolic activity and therefore with the proliferative activity, was determined with the commercial CellTiter-Glo® luminescent cell viability kit (Promega, Madison, WI).

HIF-1α = test: Western blot of HIF-1alpha in dental pulp stem cells; format: cell-based, human; settings: 0.5 µM, physical hypoxia
Text: The culture medium used was Low-Glucose DMEM supplemented with 10% fetal bovine serum. The human dental pulp mesenchymal stem line [Gronthos S, et al., "Postnatal human dental pulp stem cells (DPSCs) in vitro and in vivo" Proc Natl Acad Sci U S A, 2000 Dec 5; 97(25):13625-30.; Gronthos S et al.,." Stem cell properties of human dental pulp stem cells" J Dent Res, 2002 Aug; 81(8):531-5], obtained from human third molars from adults (19-29 years of age), was provided by the Cardioregeneration Dept. of the CIPF. The cells were seeded at a density of 2000 cells/cm^2, and when they reached a 90% confluence they were subcultured again by means of trypsinization.
The dental pulp cells were seeded at 2000 cells/cm^2 in 21 cm^2 plates. […]

HT29 = test: Western blot of DNA damage response proteins in HT29; format: cell-based, human; settings: 0.25 or 0.5 µM, 24 hours
Text: According to the results obtained by the Western blotting technique, FM19G11 triggers a DNA damage response (DDR) in human colon cancer cells (HT29).

## Cc1ccc(C(=O)COC(=O)c2cccc(NC(=O)c3ccc([N+](=O)[O-])cc3[N+](=O)[O-])c2)cc1 [FM19G11, 2-oxo-2-(p-tolyl)ethyl 3-((2,4-dinitro)benzamido)benzoate]
C17.2
  IC50: > 1000 nM
Sox2 and Oct3/4
  expression of both Sox2 and Oct3/4 (mRNA): significantly inhibits
epSPCs; 48 hours, ~20% O2
  rates of proliferation (ATP): increases the rates of proliferation
epSPCs; hypoxic conditions (1% O2)
  rates of proliferation (ATP): not reproduced
epSPCs; normoxic conditions (20% O2)
  formation of neurospheres: favors the formation of neurospheres
HIF-1α
  expression of HIF-1α: inhibited
HT29
  phosphorylation of DDR proteins (H2AX, MLH1, MSH6, BRCA1, ATM, ATR, CHK1, CHK2, p53): efficiently increased the phosphorylation
